The source of these data is patent publication US10370405B2, “C-3 novel triterpenone with C-28 amide derivatives as HIV inhibitors” (HETERO LABS LIMITED, priority 2016, dated 2019).

Each structure is given as a SMILES string. Read-outs that look alike come from different tables or passages of the source.

Series [1] is described as follows: Single dose oral pharmacokinetic study. The format is in vivo. The settings on record: mouse, plasma; Mice oral PK @30 mg/kg. As to the method: The test item was administered through oral route to animals (rat/mice) at 30 mg/kg dose in a suitable vehicle (10% Solutol+20% PEG) at 10 ml/kg dose volume. Blood samples (˜50 μL at each time point) were collected from retro-orbital plexus using K3 EDTA as anticoagulant in eppendorf tubes at defined time intervals 30 minutes, 1 hour, 2 hour, 4 hour, 8 hour, 24 hour & 48 hour under light ether anaesthesia. The samples were centrifuged at 3500×g to separate plasma and stored at −80° C. until analysis. Plasma […] for Mice were processed as per described in sample preparation.
Standard solutions of the test compound 1 mg/mL solutions were prepared in DMSO and further dilutions were made in methanol. The calibration curve samples for LCMSMS analysis were prepared by spiking 25 μl of Mice plasma with 2.5 μl and of the appropriate working standard solution to obtain final concentrations 0.078, 0.156, 0.312, 0.625, 1.25, 2.5, 5, 10, 20 & 40 µg/ml. To the test compound plasma extraction was carried out using Acetonitrile precipitation. After reconstitution with solvent (50% Acetonitrile in Buffer) samples were analyzed by LCMSMS to get the concentrations to calculate PK Parameters.

The test system of another series is HIV-1 strain 92HT599. The series can be described thus: Antiviral activity: p24 estimation in MT2 cells infected with HIV-1. It is filed as cell-based. The settings on record: for IC50: Human immunodeficiency virus 1, MT2; for inhibition at 0.01 µM / inhibition at 0.1 µM / inhibition at 1 µM: Human immunodeficiency virus 1, MT2 cells, HIV-1 92HT599, p24, ~96 hours. As to the method:
MT2 cells were infected with HIV-1 strain 92HT599 (10 TCID 50/30000 cells). The infected cells were plated at the concentration of ˜30 000 cells per well in 96 well plate. Test compound was added to the micro plate in defined format with the final concentration of DMSO (vehicle) is not more than 1%. Incubation was carried out in CO2 incubator for ˜96 hours for viral infection. At the end of incubation period an aliquot from each well was taken for p24 estimation. The quantitation of p24 is an index for antiviral activity of the compound. Percent inhibition was calculated with reference to control values (vehicle controls). P-24 estimation was carried out using Advance biosciences kit as per the procedure detailed by supplier.

Where [2] appears, read: 0% serum, read-out: Antiviral activity IC50 (nM) 0%.
[3] abbreviates: read-out: Antiviral activity IC50 (nM) 40% serum.

Description for in vitro: On day 1 calculate the number of cells required for the assay and seed 3×10^4 cells in 200 μl per well. Weigh the compound and dissolve it in DMSO to get 10 mM stock which is further diluted to 3 mM and 1 mM. The drugs from these stocks were added to plate to get final concentration of 100 μM, 30 μM and 10 μM. […] Incubate for 4 days in 5% CO2 incubator at 37° C. On day 4, 100 μl of medium was removed from each well without disturbing the cells. Add 10 μl of MTT reagent and incubate for 4 hours at 5% CO2 incubator at 37° C. for formation of crystals. Add 200 μl of 0.1N acidic isopropanol to dissolve the crystals and read the plate at 590 nm.

The term AUC(0-t) denotes the area under the concentration-time curve up to a stated or last time point. Usually Cmax stands for the maximum level reached in the sampled fluid or tissue. As a reminder, the viability is a per cent measure of how many cells are alive, often set against a control. A higher viability goes with less harm to the cells. A word on the IC50: it is the concentration that gives 50% inhibition. By inhibition is commonly meant the change of the read-out against control, counted positive when it falls. As to `CC(C)C1=C2[C@H]3CC[C@@H]4[C@@]5(C)CC[C@H](OC(=O)[C@H]6C[C@@H](C(=O)O)C6(C)C)C(C)(C)[C@@H]5CC[C@@]4(C)[C@]3(C)CC[C@@]2(C(=O)N2CCC[C@H]2CN2CCC(F)(F)CC2)CC1=O` [Example 7, (1R,3S)-3-((((3aR,5aR,5bR,7aR,9S,11aR,11bR,13aS)-3a-((S)-2-((4,4-difluoropiperidin-1-yl)methyl)pyrrolidine-1-carbonyl)-1-isopropyl-5a,5b,8,8,11a-pentamethyl-2-oxo-3,3a,4,5,5a,5b,6,7,7a,89,10,11,11a,11b,12,13,13a-octadecahydro-2H-cyclopenta[a]chrysen-9-yl)oxy)carbonyl)-2,2-dimethylcyclobutane-1-carboxylic acid], in series [1], the area under the curve AUC(0-t) came to 28.8 µg·h/mL and the maximum concentration (Cmax) worked out at 7410 ng/mL. In the series “in vitro”, this compound registered a viability at 4 days, 10 μM of 65%; a viability at 4 days, 30 μM of 9%; a viability at 4 days, 100 μM of 8%. Further, in the series with HIV-1 strain 92HT599 (setting [2]), the IC50 was 24.7 nM. The IC50 with HIV-1 strain 92HT599 (setting [3]) was 313 nM. For the same compound, in the series with HIV-1 strain 92HT599, the inhibition at 0.01 µM is 100%, the inhibition at 0.1 µM was 100% and the inhibition at 1 µM was 100%.

In series [1], `CC(C)C1=C2[C@H]3CC[C@@H]4[C@@]5(C)CC[C@H](OC(=O)[C@H]6C[C@@H](C(=O)O)C6(C)C)C(C)(C)[C@@H]5CC[C@@]4(C)[C@]3(C)CC[C@@]2(C(=O)NC(C)(C)c2ncc(-c3ccccc3)[nH]2)CC1=O` [Example 8, (1R,3S)-3-((((3aR,5aR,5bR,7aR,9S,11aR,11bR,13aS)-1-isopropyl-5a,5b,8,8,11a-pentamethyl-2-oxo-3a-((2-(5-phenyl-1H-imidazol-2-yl)propan-2-yl)carbamoyl)-3,3a,4,5,5a,5b,6,7,7a,8,9,10,11,11a,11b,12,13,13a-octadecahydro-2H-cyclopenta[a]chrysen-9-yl)oxy)carbonyl)-2,2-dimethylcyclobutane-1-carboxylic acid] came in with an AUC(0-t) of 265 µg·h/mL and a Cmax of 15200 ng/mL. For the same compound, in the series “in vitro”, the viability at 4 days, 10 μM was 29%; the viability at 4 days, 30 μM was 5%; the viability at 4 days, 100 μM amounted to 2%. Also, the IC50 in the series with HIV-1 strain 92HT599 (setting [2]) was 3.7 nM. The IC50 in the series on HIV-1 strain 92HT599 (setting [3]) was 14.2 nM. In the series with HIV-1 strain 92HT599, the inhibition at 0.01 µM was 100%, the inhibition at 0.1 µM is 100% and the inhibition at 1 µM was 100%.

In series [1], `CC(C)C1=C2[C@H]3CC[C@@H]4[C@@]5(C)CC[C@H](OC(=O)[C@H]6C[C@@H](C(=O)O)C6(C)C)C(C)(C)[C@@H]5CC[C@@]4(C)[C@]3(C)CC[C@@]2(C(=O)N2CCC[C@H]2C(C)(C)O)CC1=O` [Example 9, (1R,3S)-3-((((3aR,5aR,5bR,7aR,9S,11aR,11bR,13aS)-3a-((S)-2-(2-hydroxypropan-2-yl)pyrrolidine-1-carbonyl)-1-isopropyl-5a,5b,8,8,11a-pentamethyl-2-oxo-3,3a,4,5,5a,5b,6,7,7a,8,9,10,11,11a,11b,12,13,13a-octadecahydro-2H-cyclopenta[a]chrysen-9-yl)oxy)carbonyl)-2,2-dimethylcyclobutane-1-carboxylic acid] registered an area under the curve AUC(0-t) of 107 µg·h/mL and a Cmax of 10900 ng/mL. In the series “in vitro”, this compound yielded a viability at 4 days, 10 μM of 40%; a viability at 4 days, 30 μM of 9%; a viability at 4 days, 100 μM of 8%. In addition, the IC50 in the series with HIV-1 strain 92HT599 (setting [2]) is 7.44 nM. Moreover, the 50% inhibitory concentration (IC50) in the series with HIV-1 strain 92HT599 (setting [3]) was 342 nM. For the same compound, in the series on HIV-1 strain 92HT599, the inhibition at 0.01 µM is 100%, the inhibition at 0.1 µM is 100% and the inhibition at 1 µM is 100%.

Turning to `CC(C)C1=C2[C@H]3CC[C@@H]4[C@@]5(C)CC[C@H](OC(=O)[C@H]6C[C@@H](C(=O)O)C6(C)C)C(C)(C)[C@@H]5CC[C@@]4(C)[C@]3(C)CC[C@@]2(C(=O)NC(C)(C)c2ncc(-c3ccc(Cl)cc3)[nH]2)CC1=O` [Example 11, (1R,3S)-3-((((3aR,5aR,5bR,7aR,9S,11aR,11bR,13aS)-3a-((2-(5-(4-chlorophenyl)-1H-imidazol-2-yl)propan-2-yl)carbamoyl)-1-isopropyl-5a,5b,8,8,11a-pentamethyl-2-oxo-3,3a,4,5,5a,5b,6,7,7a,8,9,10,11,11a,11b,12,13,13a-octadecahydro-2H-cyclopenta[a]chrysen-9-yl)oxy)carbonyl)-2,2-dimethylcyclobutane-1-carboxylic acid], in series [1], the AUC(0-t) amounted to 143 µg·h/mL and the Cmax is 10000 ng/mL. In the series “in vitro”, this compound returned a viability at 4 days, 10 μM of 48%; a viability at 4 days, 30 μM of 3%; a viability at 4 days, 100 μM of 4%. The 50% inhibitory concentration (IC50) in the series with HIV-1 strain 92HT599 (setting [2]) was 2.93 nM. Further, the IC50 in the series with HIV-1 strain 92HT599 (setting [3]) is 118 nM. In the series with HIV-1 strain 92HT599, the inhibition at 0.01 µM is 92%, the inhibition at 0.1 µM is 99% and the inhibition at 1 µM was 99%.

In series [1], `CC(C)C1=C2[C@H]3CC[C@@H]4[C@@]5(C)CC[C@H](OC(=O)[C@H]6C[C@@H](C(=O)O)C6(C)C)C(C)(C)[C@@H]5CC[C@@]4(C)[C@]3(C)CC[C@@]2(C(=O)NC(C)(C)CN2CCCC2)CC1=O` [Example 12, (1R,3S)-3-((((3aR,5aR,5bR,7aR,9S,11aR,11bR,13aS)-1-isopropyl-5a,5b,8,8,11a-pentamethyl-3a-((2-methyl-1-(pyrrolidin-1-yl)propan-2-yl)carbamoyl)-2-oxo-3,3a,4,5,5a,5b,6,7,7a,8,9,10,11,11a,11b,12,13,13a-octadecahydro-2H-cyclopenta[a]chrysen-9-yl)oxy)carbonyl)-2,2-dimethlcyclobutane-1-carboxylic acid] came in with an exposure AUC(0-t) of 19 µg·h/mL and a Cmax of 5100 ng/mL. In “in vitro”, this compound gave a viability at 4 days, 10 μM of 100%; a viability at 4 days, 30 μM of 100%; a viability at 4 days, 100 μM of 96%. Also, the concentration for half-maximal inhibition (IC50) in the series on HIV-1 strain 92HT599 (setting [2]) is 3.71 nM. In the series with HIV-1 strain 92HT599 (setting [3]), the IC50 was 164 nM. Also, in the series on HIV-1 strain 92HT599, the inhibition at 0.01 µM is 9%, the inhibition at 0.1 µM was 95% and the inhibition at 1 µM is 100%.

As to `CC(C)C1=C2[C@H]3CC[C@@H]4[C@@]5(C)CC[C@H](OC(=O)[C@H]6C[C@@H](C(=O)O)C6(C)C)C(C)(C)[C@@H]5CC[C@@]4(C)[C@]3(C)CC[C@@]2(C(=O)N2CCC[C@H]2CN2CCCC2)CC1=O` [Example 13, (1R,3S)-3-((((3aR,5aR,5bR,7aR,9S,11aR,1 bR,13aS)-1-isopropyl-5a,5b,8,8,11a-pentamethyl-2-oxo-3a-((S)-2-(pyrrolidin-1-ylmethyl)pyrrolidine-1-carbonyl)-3,3a,4,5,5a,5b,6,7,7a,8,9,10,11,11a,11b,12,13,13a-octadecahydro-2H-cyclopenta[a]chrysen-9-yl)oxy)carbonyl)-2,2-dimethylcyclobutane-1-carboxylic acid], in series [1], the area under the curve AUC(0-t) was 320 µg·h/mL and the maximum concentration (Cmax) was determined as 17000 ng/mL. In the series “in vitro”, this compound displayed a viability at 4 days, 10 μM of 69%; a viability at 4 days, 30 μM of 26%; a viability at 4 days, 100 μM of 28%. In the series with HIV-1 strain 92HT599 (setting [2]), the IC50 was 0.73 nM. For the same compound, in the series with HIV-1 strain 92HT599 (setting [3]), the half-maximal inhibitory concentration (IC50) is 17.1 nM. In the series with HIV-1 strain 92HT599, the inhibition at 0.01 µM was 96%, the inhibition at 0.1 µM is 100% and the inhibition at 1 µM is 100%.
